Columns and labels:
Bacillus subtilis NadD = Bacillus subtilis NadD (Bacillus subtilis, UniProt P54455); format: biochemical
CoADR (JCVISYN3A_0887) = format: biochemical, Mycoplasma mycoides subsp. capri; conditions: pH 7.5
human DJ-1 = target: T1, human DJ-1 (Homo sapiens, UniProt Q99497); experiment: deglycase assay; format: biochemical; conditions: cited from earlier work
T1 construct: gene PARK7; recombinant; details in supplement
T1 sequence (Q99497 1-189 limits assumed): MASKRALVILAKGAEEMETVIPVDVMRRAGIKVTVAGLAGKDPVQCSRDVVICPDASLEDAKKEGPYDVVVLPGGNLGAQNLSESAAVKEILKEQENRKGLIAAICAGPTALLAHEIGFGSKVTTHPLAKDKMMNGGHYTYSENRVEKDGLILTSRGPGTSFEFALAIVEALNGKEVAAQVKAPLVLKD

[1] = tested on: JCVISYN3A_0400 (DJ-1 homolog); format: biochemical, Mycoplasma mycoides subsp. capri

Chain of Bacillus subtilis NadD (P54455 whole entry): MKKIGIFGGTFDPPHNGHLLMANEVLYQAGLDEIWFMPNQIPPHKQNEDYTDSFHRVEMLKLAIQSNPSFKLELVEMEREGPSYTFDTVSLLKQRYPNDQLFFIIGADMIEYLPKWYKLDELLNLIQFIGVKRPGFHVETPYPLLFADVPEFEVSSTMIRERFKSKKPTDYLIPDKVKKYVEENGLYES

**Q.** Which relative activity (Bacillus subtilis NadD) does the source give for Nc1ncnc2c1ncn2[C@@H]1O[C@H](COP(=O)(O)OP(=O)(O)OP(=O)(O)O)[C@@H](O)[C@H]1O [ATP] here?
**A.** whereas B. subtilis NadD strongly preferred ATP

**Q.** Which Km (CoADR (JCVISYN3A_0887)) does the source give for CC(C)(COP(=O)(O)OP(=O)(O)OC[C@H]1O[C@@H](n2cnc3c(N)ncnc32)[C@H](O)[C@@H]1OP(=O)(O)O)[C@@H](O)C(=O)NCCC(=O)NCCSSCCNC(=O)CCNC(=O)[C@H](O)C(C)(C)COP(=O)(O)OP(=O)(O)OC[C@H]1O[C@@H](n2cnc3c(N)ncnc32)[C@H](O)[C@@H]1OP(=O)(O)O [CoAD] here?
**A.** 170 µM

**Q.** With CC(=O)C(O)SCCNC(=O)CCNC(=O)[C@H](O)C(C)(C)COP(=O)(O)OP(=O)(O)OC[C@H]1O[C@@H](n2cnc3c(N)ncnc32)[C@H](O)[C@@H]1OP(=O)(O)O (stereo partly shown) [methylglyoxal-CoA hemithioacetal] as the compound, how does the Km (human DJ-1) read?
**A.** 144 ± 64 µM

**Q.** Which Km [1] does the source give for CC(=O)C=O [methylglyoxal] here?
**A.** 1230 ± 300 µM

From paper PMC9426524 (mBio, 2022)
